{"source": "patent US20060172920A1", "about": "“Oxidised lipids as reversal agents for boronic acid drugs” (priority 2004, published 2006)", "key": {"[1]": {"system": "human thrombin", "assay": "Total neutralising capacity towards peptide boronates (Method C)", "format": "biochemical", "details": "for maximum number of boronate molecules destroyed by BLp: BLp in the absence of Cu2+", "procedure": "Method C. 20 μl of TRI-50b dissolved in DMSO was added to 313 μl of bovine lipoprotein (diluted 1 in 10 in Buffer A, see method A above) to achieve a range of final concentrations of 164, 333, 490, 660, 820, 990, 1150, 1320 and 1480 μM, respectively. Samples were removed at timed intervals and diluted 1 in 20 with buffer A. The concentration of TRI-50b in 25 μl of this mixture was determined as described in Method A. Residual TRI-50b was determined from a standards curve. The change in concentration of TRI-50b was calculated by subtracting the residual concentration from the starting concentration.\nBLp was incubated at 37° C. in the presence or absence of 1 mM cupric sulphate, Samples were taken at timed intervals and added to varying concentrations of TRI-50b up to 1.5 mM. The residual TRI-50 b was measured by Method C (Materials and Methods). —Cu^2+ […]-[…]; +Cu^2+ ▴-▴. In FIG. 10 are shown the results of an experiment in which the total mass of neutralising activity of bovine lipoprotein was determined. Increasing concentrations of TRI-50b up to 1.5 mM were added to a ten-fold dilution of the BLp fraction (OD280 nm=4.0). A rapid neutralisation of TRI-50b was observed reaching a maximum beyond which the neutralising capacity was totally exhausted. In the absence of Cu^2+, the maximum mass of TRI-50b that was neutralised was equivalent to 0.8 mM. The concentration of BLp in the mixture was 1.9 g/l or 0.0038 mM. Thus around 200 moles of TRI-50b were neutralised per mole of lipoprotein. In the presence of Cu^2+, the maximum mass of TRI-50b that was neutralised was higher and equivalent to 320 moles/mole.\nA similar experiment was carried out with dilutions of plasma (FIG. 11). […] Plasma at varying dilutions was incubated at 37° C. in the presence of 1 mM cupric sulphate. Samples were taken at timed intervals and added to varying concentrations of TRI-50b up to 1.5 mM. The residual TRI-50 b was measured by Method C (Materials and Methods). 1 in 3, […]-[…]; 1 in 6, ▴-▴; 1 in 12, ▾-▾; 1 in 3 without Cu^2+, ▪-▪. […]\nThe low-density lipoprotein particle contains a single molecule of a 500 kDa protein and 1500 molecules of esterified cholesterol. […] Samples were taken at timed intervals and the residual TRI-50b concentration was determined by Method C (Materials and Methods).\nIn FIG. 13 are shown the observations made upon the neutralisation of a number of other peptide boronates by BLp added in the absence of Cu^2+, namely TRI-30, Z-D-Dpa-Pro-BoroMbg-Opin, TRI-26, Z-D-βNal-Pro-BoroIrg-Opin; TRI-142, Moc-D,L-Dpa-Pro-BoroMpg-Opinac. […] The residual concentration of boronate was determined by Method C (Materials and Methods)."}, "[2]": {"target": "T1, thrombin (Homo sapiens, UniProt P00734)", "assay": "Thrombin assay, reversal of TRI 50c inhibition (Example 10, Methods A-C)", "format": "biochemical", "details": "final concentration; TRI 50c 1 μM; Method A", "procedure": "50 μl thrombin (33.3 ng/ml in assay buffer) and 20 μl vehicle or compound solution were added to 110 μl assay buffer (100 mM Na orthophosphate (80% Na2HPO4 and 20% NaH2PO4), 200 mM NaCl, 0.5% PEG 6000, 0.02% Na azide, pH 7.5) and incubated for 5 minutes at 37° C. […] Results are expressed as percentage change in thrombin activity. […] After the incubation period 100 μl of activated HDL (Method B) was added and further incubated for 30 minutes at 37° C."}, "[3]": {"target": "T1, thrombin", "assay": "Ki of hydrogen peroxide-treated TRI-50b against thrombin (Dixon plots)", "format": "biochemical", "details": "after hydrogen peroxide (3.0%) 2 hours at RT", "procedure": "The loss of activity of boropeptides when contacted with peroxide compounds was apparently due to the removal of the boronic acid moiety (as was observed upon treatment of TRI-50b with hydrogen peroxide). The boron provides at least four orders of binding energy to the peptide sequence because of the formation of a transition state-like adduct with the active site serine. […] 1 volume TRI-50b (15 mg/ml in DMSO) was added slowly to 10 volumes of hydrogen peroxide (3.0%) for 2 hours at RT. The Ki for inhibition of thrombin activity was carried out using Dixon plots. The initial rate of cleavage of S2302 (a chromogenic substrate for thrombin) by thrombin (28 nM) was determined at the different concentrations of substrate in the presence of varying concentrations of the oxidised inhibitor. This loss of binding energy was observed as a 20,000 fold increase in the Ki against thrombin (FIG. 15)."}, "[4]": {"system": "thrombin clotting time", "assay": "Example 11: TRI 50b and lipoprotein antidote in rat, thrombin clotting time", "format": "in vivo", "procedure": "The efficacy of a new specific antidote towards the dynamic activity of TRI 50b was evaluated in a rat study (n=15) (Male and Female rats circa 250-300 g).\nMale and female rats were anaesthetised and arterial blood sampling lines placed.\nThe antidote was prepared from a bovine lipoprotein following oxidation, ultrafiltration and Concentration.\nThe study was divided into three groups as follows: • TRI 50b alone at a dose of 2.0 mg/kg intravenously (0.8 ml/kg: Prepared in 25% ethanol/saline) • Antidote alone (5.0 ml/kg) • TRI 50b followed by administration of the antidote.\nBlood samples were taken from an arterial line into 3.8% tri-sodium citrate and plasma prepared by centrifugation.\nDynamic activity of TRI 50b was assessed in plasma samples by measurement of the thrombin clotting time.\n200 ml of Lipocell (Lipoprotein fraction, Intergen catalogue number 4505-01, Lot number WT18002) was incubated at 37° C. for 37 hours. The Lipocell was then concentrated by centrifugation. The sample contained in an Amicon Centriprep YM-3 centrifugal concentrator was spun at 3800 rpm in an IEC Centra 3C centrifuge for 30 minutes at RT. The concentrated samples were pooled and centrifuged twice more to a final volume of around 50 mls. The sample was stored at 4° C."}, "[5]": {"details": "PBS pH 7.2; cited from earlier work"}, "[6]": {"details": "stored at −80° C.; cited from earlier work"}, "[7]": {"system": "normal human plasma", "assay": "Ecarin clotting time in human plasma (Example 10, Method D)", "format": "biochemical", "details": "1-10 μM", "procedure": "(§1) Ecarin was obtained from HTI (USA) whilst the normal human plasma was purchased from Precision Biologics via Alpha Laboratories (UK). Rat plasma was purchased from Harlan laboratories, UK.\n(§2) TRI 50c was diluted in an assay buffer (100 mM sodium orthophoshate, 200 mM NaCl, 0.5% PEG 6000 and 0.02% sodium azide, pH 7.5) and incubated with normal human pooled or rat plasma (80% final) for 5 minutes at 37° C. Ecarin (100 μg/ml final) was added to the incubating solution. The clotting times were determined using a plate reader (Versamax, Molecular Devices Corporation) at 405 nm for up to 10 minutes at 37° C."}, "[8]": {"system": "rat plasma", "assay": "Ecarin clotting time in rat plasma (Example 10, Method D)", "format": "biochemical", "details": "10 μM; fresh rat plasma", "procedure": "as §1, §2"}, "[9]": {"system": "human thrombin", "assay": "Quenching of TRI-50b neutralising activity by N-acetyl cysteine (Method B)", "format": "biochemical", "procedure": "Method B Method as A except that the measurement was made at a single time point. The incubation period was 20 minutes with plasma samples and 1 minute with the purified lipoproteins. Results are given as the overall percentage activity relative to a control without inhibitor. If lipid peroxides are involved in the inactivation then, the addition of n-acetyl-cysteine (NAC), a powerful anti-oxidant should reduce the neutralising activity. (NAC has been used historically to mop up reactive oxygen species). […] Plasma (1 in 10 dilution in buffer A) was incubated with 1.0 mM cupric sulphate for 4 hours. Increasing concentrations of n-acetyl cysteine were then added and also to BLp (1 in 10 dilution in buffer A). The neutralisation of TRI-50b was measured by Method B (Materials and Methods). Plasma, ▪-▪, BLp ▴-▴. A reduction in neutralising activity, to approximately base-line levels was observed when increasing concentrations of NAC were added to plasma or the bovine lipoprotein fraction (FIG. 14)."}}, "note": "“And” between values parts separate entries of the source, which are not always exact repeats. Equal entries are not always repeated."}
{"compound": "Moc-D,L-Dpa-Pro-BoroMpg-Opinac [TRI-142]", "values": [{"measurement": "maximum number of boronate molecules destroyed by BLp", "setting": "[1]", "result": "around 65 moles/mole"}]}
{"compound": "O=S(=O)([O-])[O-].[Cu+2]", "note": "[CuSO4, copper sulphate]", "values": [{"measurement": "concentration that began to reduce the inhibitory activity of TRI 50c", "setting": "[2]", "result": "greater than 50 μM"}]}
{"compound": "Z-D-βNal-Pro-BoroIrg-Opin [TRI-26]", "values": [{"measurement": "maximum number of boronate molecules destroyed by BLp", "setting": "[1]", "result": "around 65 moles/mole"}]}
{"compound": "COCCC[C@H](NC(=O)[C@@H]1CCCN1C(=O)[C@@H](Cc1ccccc1)NC(=O)OCc1ccccc1)B1OC(C)(C)C(C)(C)O1", "note": "[TRI 50b, Cbz-(R)-Phe-Pro-BoroMpg-OPinacol]", "values": [{"measurement": "increase in the Ki against thrombin", "setting": "[3]", "result": "20,000 fold"}, {"measurement": "elevation of thrombin clotting time over base line", "setting": "[4]; 2.0 mg/kg intravenously, two minutes post dose", "result": 5.6, "unit": "times base line"}, {"measurement": "thrombin clotting time (TT)", "setting": "[4]; 2.0 mg/kg iv, 30 minutes post dose", "result": 36, "unit": "s"}, {"measurement": "time for thrombin clotting time to return to base line", "setting": "[4]; 2.0 mg/kg iv, post dose", "result": "≤ 60", "unit": "min"}, {"measurement": "thrombin clotting time", "setting": "[4]; 2.0 mg/kg iv, two minutes post dose", "result": "128 s and 138 s"}]}
{"compound": "cholesteryl linoleate hydroperoxide", "values": [{"measurement": "equivalence of TRI-50b neutralisation", "setting": "[1]; 44 μM hydroperoxide mixed with TRI-50b", "result": "approximately 1 mole/mole"}, {"measurement": "solubility in aqueous buffers", "setting": "[5]", "result": "< 20", "unit": "µg/mL"}, {"measurement": "storage stability", "setting": "[6]", "result": "stable for at least six months"}]}
{"compound": "COCCC[C@H](NC(=O)[C@@H]1CCCN1C(=O)[C@@H](Cc1ccccc1)NC(=O)OCc1ccccc1)B(O)O", "note": "[TRI 50c, Cbz-(R)-Phe-(S)-Pro-(R)-Mpg-B(OH)2]", "values": [{"measurement": "prolongation of ECT", "setting": "[7]", "result": "concentration dependent prolongation"}, {"measurement": "ECT", "setting": "[8]", "result": "approximately 215 seconds"}]}
{"compound": "CC(=O)NC(CS)C(=O)O", "note": "(stereo not shown) [NAC, n-acetyl-cysteine]", "values": [{"measurement": "IC50", "setting": "[9]; BLp (1 in 10 dilution)", "result": "~2000", "unit": "µM"}, {"measurement": "IC50", "setting": "[9]; oxidised plasma (1 in 10, 1.0 mM cupric sulphate 4 hours)", "result": "~100", "unit": "µM"}]}
{"compound": "Z-D-Dpa-Pro-BoroMbg-Opin [TRI-30]", "values": [{"measurement": "maximum number of boronate molecules destroyed by BLp", "setting": "[1]", "result": "around 80 moles/mole"}]}
